From patent US20260000608A1, “COMPOSITIONS AND METHODS FOR ADMINISTERING ANESTHETICS” (Children's Medical Center Corporation, priority 2018, published 2026)
Where “and” joins values, the source holds several entries; their conditions need not be identical. Equal entries are not always repeated.

Tests used:
HUVECs = experiment: Cytotoxicity in HUVECs (MTS cell viability); format: cell-based, human; settings: 0.1 mg/mL free bupivacaine, 24 hours
Protocol: HUVECs were purchased from ATCC. The cell line was authenticated by the suppliers and passaged in the laboratory for fewer than 3 months after resuscitation. HUVECs were maintained in a 37° C./5% CO2 humidified chamber in Endothelial Cell Growth Medium (EBM-2) (Lonza, USA). When the cells grew to 80% confluence, the cell studies were performed. For cytotoxicity studies, HUVECs were seeded in 96-well plates and incubated with various drug formulations (free bupivacaine, micellar composition comprising bupivacaine, and liposomal composition comprising bupivacaine) for 24 hours. Cell viability was evaluated by CellTiter 96® AQueous One Solution Cell Proliferation Assay (MTS) (Promega, USA) according to suppliers' instructions. The absorbance at 490 nm wavelength was detected with a microplate reader ([…]x, BioTek®, USA). Untreated cells served as a control. Results were shown as the average cell viability [(OD treat OD blank)/(OD control OD blank)×100%] of quintuplicate wells. […] The cells were washed three times with 3 mL of fresh medium and the washing medium was added to the collected incubated medium, the final volume of the collected medium was adjusted to 12 mL and the fluorescence intensity of each medium was measured by fluorescence spectrophotometer (Cary Eclipse, Agilent, USA). […]

rat tail [1] = experiment: Rat tail IVRA (Bier block) assessed by tail-flick test; format: in vivo
Protocol: In a typical IVRA procedures, the rats were anesthetized with isoflurane-oxygen. The tail vein was cannulated with a 24-gauge IV catheter, which was placed in the distal third of the tail and filled with heparinized saline (BD, USA). The tail was exsanguinated by wrapping it with a rubber strip. An elastic tourniquet was tightly applied proximal to the rubber strip and then the rubber strip was removed. Next, 0.4 mL of formulation was injected by a microinjector (1 mL) through the IV catheter. After releasing the tourniquet, animals were allowed to recover from the isoflurane anesthesia, then rat tail IVRA was assessed by the tail-flick test. In brief, tail-flick latency (the time from onset of radiant heat to tail-flick response) was measured by a tail-flick analgesia meter (Tail-Flick Unit 37370; Ugo Basile, Comerio, Italy). The intensity of radiant heat (parameter of the analgesia meter) was set at 90%, and cut-off time of radiant heat was set at 18 seconds. The testing area was between the injection site in the distal tail and the tourniquet, in the proximal tail. Baseline tail-flick latency was measured in untreated and saline injected rats. All evaluations were performed by two trained observers blinded to group allocation.

[2] = Bupivacaine concentration in the blood after IVRA and tourniquet release; format: in vivo, rat
Protocol: The following were administered as IVRA: saline, 0.5% free bupivacaine, 0.1% free bupivacaine, micellar composition comprising bupivacaine (0.1% bupivacaine), and liposomal composition comprising bupivacaine (0.1% bupivacaine). After releasing the tourniquet, 200 microliters of blood was collected (through the tail vein opposite from that through formulations were injected) at 15 minutes, 30 minutes, 45 minutes, 90 minutes, 150 minutes, 240 minutes, 480 minutes and 720 minutes. Blood was put in ethylenediaminetetraacetic acid (EDTA) containing blood collection tubes (BD, USA). The samples were stored in ice water for 10-15 minutes and then centrifuged at 3,000 rpm at 4° C. for 5 minutes to obtain plasma. The hemocytes were lysed by ultrasonication (Sonics & Materials, Inc., USA) at 4° C. for 2 minutes and centrifuged at 13,000 rpm at 4° C. for 5 minutes to obtain a supernatant. The supernatant was combined with plasma. Next, 50 microliters of the blood samples were mixed with 10 microliters of sodium hydroxide aqueous solution (1 M) and 0.3 mL ethyl ether in an ice-water bath. The mixtures were vigorously vortexed for 2 minutes and centrifuged at 3,000 rpm for […] at room temperature. The organic phase was transferred to a 4 mL glass vial and evaporated to dryness in a 4° C. ice-water bath under vacuum. The residue was dissolved in 200 microliters of water-methanol (50/50, v/v), and was mechanically agitated for 30 seconds. The samples were transferred to clean polypropylene tubes and centrifuged at 13,000 rpm for 10 minutes. The supernatant was analyzed by HPLC.

[3] = test system: rat tails and organs (heart, liver, spleen, lung, kidney); experiment: Histology (H&E) of tails and organs 24 hours after IVRA; format: in vivo; settings: 0.5% bupivacaine
Protocol: 24 hours after the IVRA procedures, rats that had been administered saline, free bupivacaine (0.5% bupivacaine), micellar composition comprising bupivacaine (0.1% bupivacaine), and liposomal composition comprising bupivacaine (0.1% bupivacaine) were euthanized. Tails and organs (e.g., heart, liver, spleen, lung, and kidney) were harvested and fixed with 10% formalin. The organs were processed by standard procedures to produce hematoxylin and eosin-stained (H&E stained) slides. The tails were decalcified to remove bones before H&B staining procedures. Similar regions were examined in each organ from different groups. Tissues from healthy rats (no treatment) were used as negative controls.

rat tail blood vessels = experiment: Distribution within the tail: frozen sections, anti-CD34 staining, CLSM; format: in vivo
Protocol: The slices were imaged by CLSM. The intensity of the Rhd fluorescence was calculated from images using ImageJ.

rat tail [4] = experiment: In vivo imaging (IVIS) of Rhd fluorescence retention in rat tail after tourniquet release; settings: one hour after tourniquet release, n=4
Protocol: For in vivo imaging, the same IVRA procedures were performed, and 0.4 mL of: (i) free Rhd; Rhd-labeled micellar composition comprising bupivacaine; and Rhd-labeled liposomal composition comprising bupivacaine was injected into the tails of rats (n=4) after fastening the tourniquet. Images were taken with an In Vivo Imaging System (PerkinElmer Inc., USA) before releasing the tourniquet, and the signal intensity in those images was considered to be 100%. […] The Rhd signals of each composition were quantified at each time point, and normalized to the intensity before tourniquet release.

[5] = 0.4 mL of 0.5% bupivacaine by IVRA, tourniquet time 5 min
[6] = 0.4 mL of 0.5% bupivacaine by IVRA, tourniquet time 10 min
[7] = 0.4 mL of 0.5% bupivacaine by IVRA, tourniquet time 15 min
[8] = 0.4 mL of 0.5% bupivacaine by IVRA, tourniquet time 20 min
[9] = 0.4 mL of 0.5% bupivacaine by IVRA, tourniquet time 30 min
[10] = bupivacaine concentration 0.1% w/v, 0.4 mL, 15 minute tourniquet
[11] = bupivacaine concentration 0.5% w/v, 0.4 mL, 15 minute tourniquet

With CCCCN1CCCCC1C(=O)Nc1c(C)cccc1C (centres unmarked) [Free bupivacaine, bupivacaine] the cells alive (HUVECs) was 22.1+/−2.4%, the “anesthetic effect (tail-flick)” value (rat tail [1]; 0.1% bupivacaine, comparable to saline) was “did not achieve any anesthetic effect” and the “Anesthesia Duration” value (rat tail [1]; [5]) was 0 h. The “Successful Anesthesia (%)” value (rat tail [1]; [5]) was 0%, the “Anesthesia Duration” value (rat tail [1]; [6]) was 0.3 ± 0.5 h and the “Successful Anesthesia (%)” value (rat tail [1]; [6]) was 25%. For the same compound, the “Anesthesia Duration” value (rat tail [1]; [7]) was 2 h and 2.0 ± 0.6 h, the “Successful Anesthesia (%)” value (rat tail [1]; [7]) was 100% and the animals with anesthesia (rat tail [1]; 0.4 mL of 0.5% bupivacaine by IVRA, tourniquet time 15 minutes) was “four of four”. For the same compound, the “Anesthesia Duration” value (rat tail [1]; [8]) was 1.9 ± 0.5 h, the “Successful Anesthesia (%)” value (rat tail [1]; [8]) was 100% and the “Anesthesia Duration” value (rat tail [1]; [9]) was 2.0 ± 0.5 h. The “Successful Anesthesia (%)” value (rat tail [1]; [9]) was 100%, the “Anesthesia Duration” value (rat tail [1]; [10]) was 0 h and the “Successful Anesthesia (%)” value (rat tail [1]; [10]) was 0%. For the same compound, the “Anesthesia Duration” value (rat tail [1]; [11]) was 2.0 ± 0.6 h, the “Successful Anesthesia (%)” value (rat tail [1]; [11]) was 100% and the “Anesthesia Duration” value (rat tail [1]; bupivacaine concentration 0.5% w/v, 0.4 mL, 15 minute tourniquet, listed as free bupivacaine) was 2.0 ± 0.6 h. The mortality ([2]; 0.5% free bupivacaine by IVRA, rats) was “none died”, the “clinical observation after tourniquet release” value ([2]; rat, in vivo) was “dyspnea” and the “time of peak bupivacaine concentration in blood” value ([2]; rat, in vivo) was 45 min. For the same compound, the “histology of heart, liver, spleen, lung and kidney (H&E)” value [3] was “no histological abnormalities” and the “tail myotoxicity (H&E)” value [3] was “no myotoxicity”.
In the case of rhodamine [free Rhd], the “Rhd signal in tail sections (fluorescence microscopy)” value (rat tail blood vessels; 15 minutes after release of the tourniquet) is reported as “very strong Rhd signals co-localized with blood vessel”, the “Rhd signal in tail sections (fluorescence microscopy)” value (rat tail blood vessels; four hours after release of the tourniquet) is reported as “much weaker than at 15 minutes” and the “fluorescence intensity in the rat tail, % of intensity before tourniquet release” value (rat tail [4]) is reported as about 50%.
